Laboratory results reported in ChEMBL document CHEMBL1146797, “Design, synthesis, and biological evaluation of novel T-Type calcium channel antagonists” (Bioorg Med Chem Lett, 2004).

Legend:
Jurkat [1] = assay: Inhibition of calcium influx in jurkat (T cells).; format: functional, cell-based; settings: Homo sapiens
MDA-MB-361 [2] = assay: Inhibition of cellular proliferation in MDA-361 (breast) tumor cells.; format: functional, cell-based; settings: Homo sapiens
LNCaP [3] = assay: (§1) Inhibition of calcium influx in LNCaP (prostate).; format: functional, cell-based; settings: Homo sapiens, Prostate gland
LNCaP [4] = assay: Inhibition of cellular proliferation in LNCaP (prostate).; format: functional, cell-based; settings: Homo sapiens
MDA-MB-361 [5] = assay: Inhibition of calcium influx in MDA-361 (breast) tumor cells.; format: functional, cell-based; settings: Homo sapiens
Jurkat [6] = assay: Inhibition of cellular proliferation in jurkat (T cells).; format: functional, cell-based; settings: Homo sapiens
LNCaP [7] = assay: as §1; format: functional, cell-based, Homo sapiens, Prostate gland

Row | SMILES | IC50 (Jurkat [1]) | IC50 (MDA-MB-361 [2]) | IC50 (LNCaP [3]) | IC50 (LNCaP [4]) | IC50 (MDA-MB-361 [5]) | IC50 (Jurkat [6]) | IC50 (LNCaP [7])
1 | COc1ccc(CCN2CCC[C@H]2COCc2ccc(Cl)cc2)cc1 | 25 µM | 15 µM | 10 µM | 14 µM | 100 µM | 18 µM | –
2 | COc1ccc(CCN2CCC[C@H]2COC(c2ccc(F)cc2)c2ccc(F)cc2)cc1 | 3 µM | 14 µM | 10 µM | 4 µM | 30 µM | 5 µM | –
3 | COc1ccc(CCN2CCC[C@H]2COC(c2ccccc2)c2ccc(Cl)c(Cl)c2)cc1 (some centres undefined) | 3 µM | 11 µM | 10 µM | 4 µM | 10 µM | 6 µM | –
4 | COc1ccc(CCN2CCC[C@H]2COC(c2ccccc2)c2ccc(Br)cc2)cc1 (some centres undefined) | 30 µM | – | 15 µM | 15 µM | 100 µM | 40 µM | –
5 | COc1ccccc1CCN1CCC[C@H]1COC(c1ccccc1)c1ccc(Cl)cc1 (some centres undefined) | 1 µM | 13 µM | 12 µM | 2.4 µM | 10 µM | 3.8 µM | –
6 | COc1ccc(CCN2CCC[C@H]2COC(c2ccc(Cl)cc2)c2ccc(Cl)cc2)cc1 | 5 µM | 11 µM | 4 µM | 3 µM | 25 µM | 3.6 µM | –
7 | COc1ccc(CCN2CCCCC2COC(c2ccc(Cl)cc2)c2ccc(Cl)cc2)cc1 (centres undefined) | 15 µM | 22 µM | 7 µM | 4 µM | 30 µM | 9 µM | –
8 | COc1ccc(CCN2CCC[C@H]2COC(c2ccccc2)c2ccc(Cl)cc2)cc1 (some centres undefined) | – | 10 µM | 4 µM | 4 µM | 10 µM | 6 µM | –
9 | CN1CCC[C@H]1COC(c1ccccc1)c1ccc(Cl)cc1 (some centres undefined) | 30 µM | 47 µM | 50 µM | 17 µM | 100 µM | 60 µM | –
10 | COc1ccc(CCN2CCCC(COC(c3ccccc3)c3ccc(Cl)cc3)C2)cc1 (centres undefined) | 10 µM | 13 µM | 12 µM | 6.8 µM | 30 µM | 8.8 µM | –
11 | COc1ccc(CCN2CCCC(COC(c3ccccc3)c3ccccc3)C2)cc1 (centres undefined) | 8 µM | 17.7 µM | 15 µM | 9.2 µM | 30 µM | 13.8 µM | –
12 | COc1ccc(CCCN2CCC[C@H]2COC(c2ccccc2)c2ccc(Cl)cc2)cc1 (some centres undefined) | 1 µM | 11 µM | 30 µM | 3.5 µM | 10 µM | 4 µM | –
13 | COc1ccc(CCN2CCC[C@H]2COC(c2ccccc2)c2ccccc2)cc1 | 10 µM | 29 µM | 30 µM | 10 µM | 30 µM | 12 µM | –
14 | COc1ccc(CCN2CCC[C@H]2COCc2ccccc2)cc1 | 100 µM | 83 µM | 100 µM | 33 µM | 20 µM | 108 µM | –
15 | COc1cccc(CCN2CCC[C@H]2COC(c2ccccc2)c2ccc(Cl)cc2)c1 (some centres undefined) | 3 µM | 29 µM | 10 µM | 3.2 µM | 30 µM | 5 µM | –
16 | Oc1ccc(CCN2CCC[C@H]2COC(c2ccccc2)c2ccc(Cl)cc2)cc1 (some centres undefined) | 10 µM | 11 µM | 10 µM | 3 µM | 30 µM | 6 µM | –
17 | Clc1ccc(C(OC[C@@H]2CCCN2CCc2ccccc2)c2ccccc2)cc1 (some centres undefined) | < 1 µM | 27 µM | 30 µM | 8 µM | 3 µM | 11 µM | –
18 | COc1ccc(CCN2CCC[C@H]2COC(c2ccc(OC)cc2)c2ccc(OC)cc2)cc1 | 15 µM | 15 µM | 10 µM | 5.1 µM | 20 µM | 13 µM | –
19 | COc1ccc(CCN2CCCCC2COC(c2ccccc2)c2ccc(Cl)cc2)cc1 (centres undefined) | 3 µM | 25 µM | 10 µM | 5 µM | 30 µM | 11 µM | –
20 | COc1ccc(CCN2CCCC(COC(c3ccc(Cl)cc3)c3ccc(Cl)cc3)C2)cc1 (centres undefined) | 10 µM | 13 µM | 5 µM | 5 µM | 30 µM | 9.6 µM | –
21 | COc1ccc(CN2CCC[C@H]2COC(c2ccccc2)c2ccc(Cl)cc2)cc1 (some centres undefined) | 2 µM | 30 µM | – | 7.7 µM | 30 µM | 10 µM | No effect
22 | COc1ccc(CCN2CCC(COC(c3ccc(Cl)cc3)c3ccc(Cl)cc3)CC2)cc1 | 10 µM | 7.1 µM | 10 µM | 3.4 µM | 20 µM | 11.1 µM | –
23 | COc1ccc(CCN2CCC(COC(c3ccccc3)c3ccc(Cl)cc3)CC2)cc1 (centres undefined) | 7 µM | 10.4 µM | 5 µM | 3.3 µM | 25 µM | 8.4 µM | –
24 | COc1ccc(CCN2CCC[C@H]2COC(c2ccccc2)c2ccc(F)cc2)cc1 (some centres undefined) | 3 µM | 14 µM | 10 µM | 2 µM | 20 µM | 13 µM | –
25 | COc1ccc(CCN2CCC[C@H]2COC(c2ccc(C)cc2)c2ccc(C)cc2)cc1 | 3 µM | 40 µM | 5 µM | 6 µM | 20 µM | 11 µM | –
26 | COc1ccc(CCN2CCC(COC(c3ccccc3)c3ccccc3)CC2)cc1 | 20 µM | 10 µM | 15 µM | 5 µM | 30 µM | 8.3 µM | –
